A short description of this series: Solubility of losartan as a function of pH. Format: physicochemical. Conditions: water. The source says: It is thus conceived that for losartan, whose solubility depends greatly on the gastric pH (cf. table below), the solubilization, and thus ultimately the plasmatic concentration profile, is subject to great variation from one individual to another and, for the same individual, from one day to another.

≈ marks a conversion by molar mass, not a printed value.

By solubility is commonly meant the concentration that dissolves in the medium under given conditions. Higher therefore signals a readily soluble substance.

As for `CCCCc1nc(Cl)c(CO)n1Cc1ccc(-c2ccccc2-c2nn[nH]n2)cc1` [losartan, {2-butyl-4-chloro-1-[4-[2-(1H-tetrazol-5-yl)phenyl]benzyl]-1H-imidazol-5-yl}methanol], the solubility is, setting by setting: (aqueous buffer, pH 3.0, 37° C.) 100 µg/mL (≈ 0.236 mM); (aqueous buffer, pH 4.5, 37° C.) 120 µg/mL (≈ 0.284 mM); (aqueous buffer, pH 5.0, 37° C.) 300 µg/mL (≈ 0.709 mM); (aqueous buffer, pH 6.0, 37° C.) 1200 µg/mL (≈ 2.84 mM); (aqueous buffer, pH 6.8, 37° C.) 10000 µg/mL (≈ 23.6 mM); (aqueous buffer, pH 8.5, 37° C.) greater than 550000 µg/mL. In addition, the solubility was 1000 µg/mL (≈ 2.36 mM) (simulated gastric fluid, pH 1.4, 37° C.) and 600 µg/mL (≈ 1.42 mM) (simulated gastric fluid, pH 2.0, 37° C.).
